The source of these data is patent US10106601B2, “Inhibition of PLGF to treat philadelphia chromosome positive leukemia” (VIB VZW, priority 2008, dated 2018).

In assay [1] the test system is murine BMDSCs. In words: PIGF secretion by stromal cells incubated with imatinib. The assay is classed as cell-based. Conditions: increasing concentrations of imatinib.
Protocol: For isolation of BMDSCs, the bone marrow from femurs and tibias was flushed, the erythrocytes eliminated with lysis buffer (150 mM NH4Cl, 0.1 mM EDTA, 10 mM KHCO3, pH 7.4) and subsequently the cells were cultured in DMEM medium supplemented with 15% FCS. After 24 hours, the non-adherent cell fraction was removed, and the adherent cells were further cultured and expanded for 3 weeks.
Concentrations of PIGF or VEGF were quantified in cell culture supernatants, peripheral blood plasma and bone marrow plasma using “Quantikine” mouse PIGF and mouse VEGF immunoassays (R&D Systems). Concentrations were expressed as pg/ml/10^5 cells or as pg/ml.
Assay [2] concerns PIGF. The assay can be described thus: PIGF levels in PB of CML patients treated with Imatinib. The assay is classed as in vivo, human.
The subject of assay [3] is BCR/ABL+ cell lines. In words: Induction of proliferation of leukemia cells by recombinant PIGF. The assay is classed as cell-based, human and murine. To be noted: in vitro. The procedure: Proliferation of leukemia cells and BMDSCs was analyzed by using MTT assays or by manual counting with a hemocytometer. Murine recombinant PIGF and anti-VEGFR-1 were obtained from R&D Systems. Anti-PIGF and control IgG1 were produced by Thrombogenics and Biolnvent and characterized as described (Fischer et al., 2007). PIGF was used at a concentration of 50 ng/ml and the antibodies in 100-fold molar excess, unless stated otherwise. For co-culture experiments, 10^5 BMDSCs were co-cultured for 48 hours with 4×10^5 leukemia cells alone or in presence of the respective antibodies in serum-free medium. Subsequently, numbers of adherent BMDSCs and non-adherent leukemia cells were determined and supernatants were harvested for analyses of PIGF and VEGF protein.

Assay [4] relates to Bv-173 and KCL-22 cells. The assay can be described thus: Western Blots of ABL phosphorylation with and without PIGF. To be noted: cells incubated with and without PIGF; data not shown. The assay is classed as cell-based, human. The method, then: In order to elucidate, whether PIGF induces changes in ABL phosphorylation of BCR/ABL^+ leukemia cells, we performed Western Blots of Bv-173 and KCL-22 cells that were incubated with and without PIGF.
In general terms: A western blot detects proteins with antibodies after separation by electrophoresis.

Entries after “also recorded” stand apart in the source; their conditions may differ.

`Cc1ccc(NC(=O)c2ccc(CN3CCN(C)CC3)cc2)cc1Nc1nccc(-c2cccnc2)n1` [imatinib]: the “PIGF secretion by BMDSCs” value in assay [1] is “dose-dependent induction of PIGF”. The “PIGF levels in PB” value is on record as “elevated to similar levels as in untreated, newly diagnosed CML patients” in assay [2] (patients with BCR/ABL/ABL ratio <1) and “significantly higher” in assay [2] (patients with complete molecular remission (CMR) vs healthy subjects).

B1: PIGF: murine recombinant placental growth factor from R&D Systems, used at 50 ng/ml (protein, UniProt P49764 19-158, looked up)
Placenta growth factor: VHSQGALSAGNNSTEVEVVPFNEVWGRSYCRPMEKLVYILDEYPDEVSHIFSPSCVLLSRCSGCCGDEGLHCVPIKTANITMQILKIPPNRDPHFYVEMTFSQDVLCECRPILETTKAERRKTKGKRKRSRNSQTEEPHP
In the case of B1, in assay [3], the “induction of proliferation of leukemia cells by PIGF” value is reported as “dose dependently induced proliferation; also recorded: dose-dependent induction of proliferation”. Also, the “phosphorylation of ABL” value in assay [4] is reported as “did not modify phosphorylation of ABL”.
